Test results reported in article PMC11859928, “Design, Synthesis, and Antiproliferative Activity of Novel Indole/1,2,4-Triazole Hybrids as Tubulin Polymerization Inhibitors” (Pharmaceuticals, 2025).

Experiments:
Experiment in all cases: NCI one-dose assay
Type in all cases: cell-based
A549/ATCC = conditions: Homo sapiens, Non-small cell lung cancer, read-out: Cell growth inhibition %
Procedure: (§1) The National Cancer Institute (NCI), Bethesda, USA, selected the final compounds 6a–j and 7a–j for in vitro anticancer screening. An initial in vitro single-dose anticancer experiment was performed with the entire NCI 60 cell lines derived from nine tumor subpanel cancer cell lines. The results for each compound were illustrated as a mean graph showing the percentage growth of treated cells compared to untreated control cells (see Supplementary Materials).
(§2) The NCI anticancer screening process has been thoroughly detailed. The Drug Evaluation Branch of the National Cancer Institute in Bethesda, […], USA, established the procedure and conducted the anticancer assay on 60 human tumor cell lines from nine neoplastic cancers.

ACHN = conditions: Homo sapiens, Renal cancer, read-out: Cell growth inhibition %
Procedure: as §1, §2

BT-549 = conditions: Homo sapiens, BT-549, Breast cancer, read-out: Cell growth inhibition %
Procedure: as §1, §2

CAKI-1 = conditions: Homo sapiens, CAKI-1, Renal cancer, read-out: Cell growth inhibition %
Procedure: as §1, §2

HCC-2998 = conditions: Homo sapiens, HCC-2998, Colon cancer, read-out: Cell growth inhibition %
Procedure: as §1, §2

HL-60(TB) = conditions: Homo sapiens, Leukemia, read-out: Cell growth inhibition %
Procedure: as §1, §2

HS 578 T = conditions: Homo sapiens, Breast cancer, read-out: Cell growth inhibition %
Procedure: as §1, §2

HT29 = conditions: Homo sapiens, HT-29, HT29, Colon cancer, read-out: Cell growth inhibition %
Procedure: as §1, §2

IGROV1 = conditions: Homo sapiens, IGROV-1, IGROV1, Ovarian cancer, read-out: Cell growth inhibition %
Procedure: as §1, §2

K-562 = conditions: Homo sapiens, K562, K-562, Leukemia, read-out: Cell growth inhibition %
Procedure: as §1, §2

KM12 = conditions: Homo sapiens, KM12, Colon cancer, read-out: Cell growth inhibition %
Procedure: as §1, §2

M14 = conditions: Homo sapiens, M14, Melanoma, read-out: Cell growth inhibition %
Procedure: as §1, §2

MALME-3M = conditions: Homo sapiens, Melanoma, read-out: Cell growth inhibition %
Procedure: as §1, §2

MCF7 = conditions: Homo sapiens, MCF7, Breast cancer, read-out: Cell growth inhibition %
Procedure: as §1, §2

MDA-MB-231/ATCC = conditions: Homo sapiens, Breast cancer, read-out: Cell growth inhibition %
Procedure: as §1, §2

MDA-MB-435 = conditions: Homo sapiens, MDA-MB-435, Melanoma, read-out: Cell growth inhibition %
Procedure: as §1, §2

MDA-MB-468 = conditions: Homo sapiens, MDA-MB-468, Breast cancer, read-out: Cell growth inhibition %
Procedure: as §1, §2

NCI-H226 = conditions: Homo sapiens, NCI-H226, Non-small cell lung cancer, read-out: Cell growth inhibition %
Procedure: as §1, §2

NCI-H322M = conditions: Homo sapiens, Non-small cell lung cancer, read-out: Cell growth inhibition %
Procedure: as §1, §2

NCI-H460 = conditions: Homo sapiens, NCI-H460, Non-small cell lung cancer, read-out: Cell growth inhibition %
Procedure: as §1, §2

NCI-H522 = conditions: Homo sapiens, NCI-H522, Non-small cell lung cancer, read-out: Cell growth inhibition %
Procedure: as §1, §2

OVCAR-4 = conditions: Homo sapiens, OVCAR-4, Ovarian cancer, read-out: Cell growth inhibition %
Procedure: as §1, §2

OVCAR-8 = conditions: Homo sapiens, OVCAR-8, Ovarian cancer, read-out: Cell growth inhibition %
Procedure: as §1, §2

RPMI-8226 = conditions: Homo sapiens, RPMI-8226, Leukemia, read-out: Cell growth inhibition %
Procedure: as §1, §2

SF-295 = conditions: Homo sapiens, SF-295, CNS cancer, read-out: Cell growth inhibition %
Procedure: as §1, §2

SF-539 = conditions: Homo sapiens, SF-539, CNS cancer, read-out: Cell growth inhibition %
Procedure: as §1, §2

SK-MEL-28 = conditions: Homo sapiens, SK-MEL-28, Melanoma, read-out: Cell growth inhibition %
Procedure: as §1, §2

SK-MEL-5 = conditions: Homo sapiens, SK-MEL-5, Melanoma, read-out: Cell growth inhibition %
Procedure: as §1, §2

SK-OV-3 = conditions: Homo sapiens, SK-OV-3, Ovarian cancer, read-out: Cell growth inhibition %
Procedure: as §1, §2

SNB-75 = conditions: Homo sapiens, SNB-75, CNS cancer, read-out: Cell growth inhibition %
Procedure: as §1, §2

SR = conditions: Homo sapiens, Leukemia, read-out: Cell growth inhibition %
Procedure: as §1, §2

T-47D = conditions: Homo sapiens, T47D, Breast cancer, read-out: Cell growth inhibition %
Procedure: as §1, §2

TK-10 = conditions: Homo sapiens, TK-10, Renal cancer, read-out: Cell growth inhibition %
Procedure: as §1, §2

U251 = conditions: Homo sapiens, U-251, U251, CNS cancer, read-out: Cell growth inhibition %
Procedure: as §1, §2

UACC-257 = conditions: Homo sapiens, UACC-257, Melanoma, read-out: Cell growth inhibition %
Procedure: as §1, §2

UACC-62 = conditions: Homo sapiens, UACC-62, Melanoma, read-out: Cell growth inhibition %
Procedure: as §1, §2

Compound	inhibition at 10 µM (A549/ATCC)	inhibition at 10 µM (ACHN)	inhibition at 10 µM (BT-549)	inhibition at 10 µM (CAKI-1)	inhibition at 10 µM (HCC-2998)	inhibition at 10 µM (HL-60(TB))	inhibition at 10 µM (HS 578 T)	inhibition at 10 µM (HT29)	inhibition at 10 µM (IGROV1)	inhibition at 10 µM (K-562)	inhibition at 10 µM (KM12)	inhibition at 10 µM (M14)	inhibition at 10 µM (MALME-3M)	inhibition at 10 µM (MCF7)	inhibition at 10 µM (MDA-MB-231/ATCC)	inhibition at 10 µM (MDA-MB-435)	inhibition at 10 µM (MDA-MB-468)	inhibition at 10 µM (NCI-H226)	inhibition at 10 µM (NCI-H322M)	inhibition at 10 µM (NCI-H460)	other results
COc1ccc(/C(CSc2nnc(-c3c[nH]c4ccccc34)n2-c2ccccc2)=N/O)cc1 [Compound 7g, (Z)-2-((5-(1H-Indol-3-yl)-4-phenyl-4H-1,2,4-triazol-3-yl)thio)-1-(4-methoxyphenyl) Ethanone Oxime]	65.8%	77.7%	83.5%	79.9%	57.6%	96.1%	61.2%	68%	56.9%	81.2%	78.8%	71.1%	26.9%	85.5%	39.3%	105%	99.4%	81.8%	63.6%	82.8%	inhibition at 10 µM (NCI-H522): 63.5%; inhibition at 10 µM (OVCAR-4): 83.2%; inhibition at 10 µM (OVCAR-8): 70.3%; inhibition at 10 µM (RPMI-8226): 90.2%; inhibition at 10 µM (SF-295): 79%; inhibition at 10 µM (SF-539): 42.7%; inhibition at 10 µM (SK-MEL-28): 62.6%; inhibition at 10 µM (SK-MEL-5): 110%; inhibition at 10 µM (SK-OV-3): 47.9%; inhibition at 10 µM (SNB-75): 36.7%; inhibition at 10 µM (SR): 89.1%; inhibition at 10 µM (T-47D): 89.7%; inhibition at 10 µM (TK-10): 57.4%; inhibition at 10 µM (U251): 60.6%; inhibition at 10 µM (UACC-257): 49.9%; inhibition at 10 µM (UACC-62): 68.6%
C=CCn1c(SCC(=O)c2ccc(C)cc2)nnc1-c1c[nH]c2ccccc12 [Compound 6c, 2-((4-allyl-5-(1H-indol-3-yl)-4H-1,2,4-triazol-3-yl)thio)-1-(p-tolyl)ethanone]	5.97%	11%	2.35%	15.1%	-7.01%	10.4%	-2.83%	-6.98%	19.6%	12.8%	-6.02%	4.78%	10.5%	9.88%	11.5%	-2.15%	12.5%	17.1%	0.83%	1.59%	inhibition at 10 µM (NCI-H522): 4.55%; inhibition at 10 µM (OVCAR-4): -10.4%; inhibition at 10 µM (OVCAR-8): 10.4%; inhibition at 10 µM (RPMI-8226): 13.8%; inhibition at 10 µM (SF-295): 3.28%; inhibition at 10 µM (SF-539): 1.45%; inhibition at 10 µM (SK-MEL-28): -4.91%; inhibition at 10 µM (SK-MEL-5): 6.71%; inhibition at 10 µM (SK-OV-3): -22.4%; inhibition at 10 µM (SNB-75): -4.77%; inhibition at 10 µM (SR): 8.97%; inhibition at 10 µM (T-47D): 9.92%; inhibition at 10 µM (TK-10): -39.1%; inhibition at 10 µM (U251): 6.75%; inhibition at 10 µM (UACC-257): 6.7%; inhibition at 10 µM (UACC-62): 24.7%
O/N=C(\CSc1nnc(-c2c[nH]c3ccccc23)n1-c1ccccc1)c1ccc(Cl)cc1 [Compound 7j, (Z)-2-((5-(1H-Indol-3-yl)-4-phenyl-4H-1,2,4-triazol-3-yl)thio)-1-(4-chlorophenyl) Ethanone Oxime]	78.5%	96.7%	167%	111%	83%	126%	132%	95.5%	134%	93.1%	78.6%	147%	88.9%	96.7%	155%	200%	185%	85.7%	149%	89.5%	inhibition at 10 µM (NCI-H522): 87.6%; inhibition at 10 µM (OVCAR-4): 181%; inhibition at 10 µM (OVCAR-8): 93.6%; inhibition at 10 µM (RPMI-8226): 113%; inhibition at 10 µM (SF-295): 85.9%; inhibition at 10 µM (SF-539): 70.5%; inhibition at 10 µM (SK-MEL-28): 78.8%; inhibition at 10 µM (SK-MEL-5): 78.8%; inhibition at 10 µM (SK-OV-3): 102%; inhibition at 10 µM (SNB-75): 52%; inhibition at 10 µM (SR): 87.2%; inhibition at 10 µM (T-47D): 96.1%; inhibition at 10 µM (TK-10): 123%; inhibition at 10 µM (U251): 69.5%; inhibition at 10 µM (UACC-257): 55.7%; inhibition at 10 µM (UACC-62): 143%
